Drawing on patent publication US8269026B2, “Lupane derivatives useful for treating HIV” (priority 2008, dated 2012), this text covers IC50 for 24 compounds.

Where two headings read alike, the source gives them in different places.

This assay has as its system HIV-1 (HIVIIIB) replication in MT2 cell line. The experiment in a line: HIV-1 replication in MT2 cell line with and without 30% human serum (viral RT activity in supernatant). It is filed as cell-based. To be noted: Human immunodeficiency virus 1, MT2 cells, average IC50 if tested more than once. How it is done:
HIV-1 Replication in MT2 cell line with and without 30% human serum: The cells are infected at a Multiciplicity of Infection (MOI) of 0.5 for 3 h and then washed twice with complete media to remove residual virus. Cells are then resuspended at 0.5×10^6/ml in complete medium (RPMI, 10% FBS, 1% sodium pyruvate), and seeded into 96-well plates (6.25×10^4/well). The cells are cultured in the presence or absence of various concentrations of test compounds in serial dilutions for 3 days at 37° C. The test compounds are serially diluted in complete medium supplemented or not with 30% human serum. After 3 days, 100 μL of cultured medium with cells are replaced with 120 μL of freshly diluted test compounds in complete medium containing or not 30% Human serum. The level of HIV-1 replication is determined at days 5 after infection by the presence of viral RT activity in harvested supernatant fluid. The IC50 and IC90 values for the virus replication are determined by using GRAPHPAD PRISM software.
The IC50 of the compounds tested in accordance with the HIV replication activity assay MT2 (HIVIIIB) are represented in Table 1.

Where [1] appears, read: with 30% human serum, read-out: MT2 (HIVIIIB) with HS 30% IC50 range.
[2] abbreviates: without human serum, read-out: MT2 (HIVIIIB) IC50 range.

On to `CC(C)C1=C2C3CCC4[C@@]5(C)CC[C@H](OC(=O)CC(C)(C)C(=O)O)C(C)(C)C5CC[C@@]4(C)[C@]3(C)CC[C@@]2(NC(=O)N[C@@H](C)c2ccccc2)CC1=O` (stereo partly drawn) [17-61, 3β-O-(3′,3′-Dimethylsuccinyl)-17β-[N′-((S)-1-phenyl-ethyl)-ureido]-21-oxolup-18-ene], for which the IC50 under setting [1] was less than 199 nM.

Turning to `CC(C)C1=C2[C@H]3CC[C@@H]4[C@@]5(C)CC[C@H](OC(=O)CC(C)(C)C(=O)O)C(C)(C)[C@@H]5CC[C@@]4(C)[C@]3(C)CC[C@@]2(NC(=O)Nc2ccncc2)CC1=O` [17-26, 3β-O-(3′,3′-Dimethylsuccinyl)-17β-(N′-pyridin-4-yl-ureido)-21-oxolup-18-ene], the IC50 under setting [1] is less than 199 nM.

For `CC(C)C1=C2C3CCC4[C@@]5(C)CC[C@H](OC(=O)CC(C)(C)C(=O)O)C(C)(C)C5CC[C@@]4(C)[C@]3(C)CC[C@@]2(NC(=O)NCc2cncnc2)CC1=O` (stereo partly drawn) [17-68, 3β-O-(3′,3′-Dimethylsuccinyl)-17β-[N′-(pyrimidin-5-ylmethyl)ureido]-21-oxolup-18-ene], the IC50 under setting [1] is less than 199 nM.

As for `CC(C)C1=C2[C@H]3CC[C@@H]4[C@@]5(C)CC[C@H](OC(=O)CC(C)(C)C(=O)O)C(C)(C)[C@@H]5CC[C@@]4(C)[C@]3(C)CC[C@@]2(NC(=O)NCc2nncn2C)CC1=O` [17-74, 3β-O-(3′,3′-Dimethylsuccinyl)-17β-[N′-(4-methyl-4H-[1,2,4]triazol-3-yl-methyl)-ureido]-21-oxolup-18-ene], the IC50 under setting [1] is more than 1000 nM.

With `CC(C)C1=C2C3CCC4[C@@]5(C)CC[C@H](OC(=O)CC(C)(C)C(=O)O)C(C)(C)C5CC[C@@]4(C)[C@]3(C)CC[C@@]2(NC(=O)OC2CCN(C(=O)OC(C)(C)C)CC2)CC1=O` (stereo partly drawn) [20-6, 3β-O-(3′,3′-Dimethylsuccinyl)-17β-[(1-carboxylic acid tert-butyl ester)-piperidine-4-oxycarbonylamino]-21-oxolup-18-ene], the IC50 is, setting by setting: under setting [1], less than 199 nM; under setting [2], less than 199 nM.

Take `CC(C)C1=C2C3CCC4[C@@]5(C)CC[C@H](OC(=O)CC(C)(C)C(=O)O)C(C)(C)C5CC[C@@]4(C)[C@]3(C)CC[C@@]2(NC(=O)N[C@H](C)C2CCCCC2)CC1=O` (stereo partly drawn) [17-55, 3β-O-(3′,3′-Dimethylsuccinyl)-17β-[N′-((R)-1-cyclohexyl-ethyl)ureido]-21-oxolup-18-ene]: the IC50 under setting [1] was less than 199 nM.

Take `Cc1ccc(C(=O)N[C@@]23CC[C@]4(C)[C@H](CC[C@@H]5[C@@]6(C)CC[C@H](OC(=O)CC(C)(C)C(=O)O)C(C)(C)[C@@H]6CC[C@]54C)C2=C(C(C)C)C(=O)C3)cn1` [19-48, 3β-O-(3′,3′-Dimethylsuccinyl)-17β-(6-methylpyridin-3-yl)amido-21-oxolup-18-ene]: the concentration for half-maximal inhibition (IC50) under setting [1] was less than 199 nM.

Consider `Cc1nnc(C(=O)N[C@@]23CC[C@]4(C)[C@H](CC[C@@H]5[C@@]6(C)CC[C@H](OC(=O)CC(C)(C)C(=O)O)C(C)(C)[C@@H]6CC[C@]54C)C2=C(C(C)C)C(=O)C3)o1` [19-4, 3β-O-(3′,3′-Dimethylsuccinyl)-17β-(5-methyl-[1,3,4]oxadiazole-2-amido)-21-oxolup-18-ene], for which the IC50 is less than 199 nM under setting [1] and less than 199 nM under setting [2].

For the compound `CC(C)C1=C2[C@H]3CC[C@@H]4[C@@]5(C)CC[C@H](OC(=O)CC(C)(C)C(=O)O)C(C)(C)[C@@H]5CC[C@@]4(C)[C@]3(C)CC[C@@]2(NC(=O)Nc2ccccn2)CC1=O` [17-25, 3β-O-(3′,3′-Dimethylsuccinyl)-17β-(N′-pyridin-2-yl-ureido)-21-oxolup-18-ene], the 50% inhibitory concentration (IC50) under setting [1] is less than 199 nM.

As to `CC(C)C1=C2C3CCC4[C@@]5(C)CC[C@H](OC(=O)CC(C)(C)C(=O)O)C(C)(C)C5CC[C@@]4(C)[C@]3(C)CC[C@@]2(NC(=O)OCC2CCCN(C)C2)CC1=O` (stereo partly drawn) [20-19, 3β-O-(3′,3′-Dimethylsuccinyl)-17β-(1-methylpiperidine-3-methoxycarbonylamino)-21-oxolup-18-ene], the IC50 under setting [1] was less than 199 nM.

For the compound `CC(C)C1=C2[C@H]3CC[C@@H]4[C@@]5(C)CC[C@H](OC(=O)CC(C)(C)C(=O)O)C(C)(C)[C@@H]5CC[C@@]4(C)[C@]3(C)CC[C@@]2(NC(=O)Nc2ncccn2)CC1=O` [17-32, 3β-O-(3′,3′-Dimethylsuccinyl)-17β-(N′-pyrimidin-2-yl-ureido)-21-oxolup-18-ene], the IC50 under setting [1] is less than 199 nM.

For `CC(C)C1=C2C3CCC4[C@@]5(C)CC[C@H](OC(=O)CC(C)(C)C(=O)O)C(C)(C)C5CC[C@@]4(C)[C@]3(C)CC[C@@]2(NC(=O)NC(C)c2ccccn2)CC1=O` (stereo partly drawn) [17-72, 3β-O-(3′,3′-Dimethylsuccinyl)-17β-[N′-(1-pyridin-2-yl-ethyl)-ureido]-21-oxolup-18-ene], the 50% inhibitory concentration (IC50) under setting [1] is less than 199 nM.

On to `CC(C)C1=C2C3CCC4[C@@]5(C)CC[C@H](OC(=O)CC(C)(C)C(=O)O)C(C)(C)C5CC[C@@]4(C)[C@]3(C)CC[C@@]2(NC(=O)c2ncccn2)CC1=O` (stereo partly drawn) [19-22, 3β-O-(3′,3′-Dimethylsuccinyl)-17β-(pyrimidine-2-amido)-21-oxolup-18-ene], for which the IC50 under setting [1] was less than 199 nM.

With `CC(C)C1=C2C3CCC4[C@@]5(C)CC[C@H](OC(=O)CC(C)(C)C(=O)O)C(C)(C)C5CC[C@@]4(C)[C@]3(C)CC[C@@]2(NC(=O)c2ccncn2)CC1=O` (stereo partly drawn) [19-25, 3β-O-(3′,3′-Dimethylsuccinyl)-17β-(pyrimidine-4-amido)-21-oxolup-18-ene], the IC50 under setting [1] was less than 199 nM.

On to `CC(C)C1=C2C3CCC4[C@@]5(C)CC[C@H](OC(=O)CC(C)(C)C(=O)O)C(C)(C)C5CC[C@@]4(C)[C@]3(C)CC[C@@]2(NC(=O)N2CCC(NC(=O)OC(C)(C)C)CC2)CC1=O` (stereo partly drawn) [17-20, 3β-O-(3′,3′-Dimethylsuccinyl)-17β-[(4-tert-butoxycarbonylamino-piperidine-1-carbonyl)-amino]-21-oxolup-18-ene], for which the IC50 under setting [1] is less than 199 nM.

Take `CC(C)C1=C2C3CCC4[C@@]5(C)CC[C@H](OC(=O)CC(C)(C)C(=O)O)C(C)(C)C5CC[C@@]4(C)[C@]3(C)CC[C@@]2(NC(=O)C(C)(C)C)CC1=O` (stereo partly drawn) [19-32, 3β-O-(3′,3′-Dimethylsuccinyl)-17β-tert-butylamido-21-oxolup-18-ene]: under setting [1], the IC50 is less than 199 nM.

Consider `CC(C)C1=C2C3CCC4[C@@]5(C)CC[C@H](OC(=O)CC(C)(C)C(=O)O)C(C)(C)C5CC[C@@]4(C)[C@]3(C)CC[C@@]2(NC(=O)OCC2(C)CC2)CC1=O` (stereo partly drawn) [20-11, 3β-O-(3′,3′-Dimethylsuccinyl)-17β-(1-methyl-cyclopropylmethoxycarbonylamino)-21-oxolup-18-ene], for which the IC50 under setting [1] is less than 199 nM.

Turning to `CC(C)C1=C2C3CCC4[C@@]5(C)CC[C@H](OC(=O)CC(C)(C)C(=O)O)C(C)(C)C5CC[C@@]4(C)[C@]3(C)CC[C@@]2(NC(=O)NC2CCN(C)CC2)CC1=O` (stereo partly drawn) [17-30, 3β-O-(3′,3′-Dimethylsuccinyl)-17β-[N′-(1-methyl-piperidin-4-yl)-ureido]-21-oxolup-18-ene], the half-inhibitory concentration (IC50) under setting [1] was less than 199 nM.

`CC(C)C1=C2C3CCC4[C@@]5(C)CC[C@H](OC(=O)CC(C)(C)C(=O)O)C(C)(C)C5CC[C@@]4(C)[C@]3(C)CC[C@@]2(NC(=O)c2cscn2)CC1=O` (stereo partly drawn) [19-27, 3β-O-(3′,3′-Dimethylsuccinyl)-17β-(1,3-thiazole-4-amido)-21-oxolup-18-ene]: under setting [1], the IC50 is less than 199 nM.

As for `CC(C)C1=C2[C@H]3CC[C@@H]4[C@@]5(C)CC[C@H](OC(=O)CC(C)(C)C(=O)O)C(C)(C)[C@@H]5CC[C@@]4(C)[C@]3(C)CC[C@@]2(NC(=O)NCc2ccccc2)CC1=O` [17-1, 3β-O-(3′,3′-Dimethylsuccinyl)-17β[N′-(benzyl)ureido]-21-oxolup-18-ene], the IC50 under setting [1] was less than 199 nM and the IC50 under setting [2] was less than 199 nM.

As for `Cc1nc(C(=O)N[C@@]23CC[C@]4(C)C(CCC5[C@@]6(C)CC[C@H](OC(=O)CC(C)(C)C(=O)O)C(C)(C)C6CC[C@]54C)C2=C(C(C)C)C(=O)C3)cs1` (stereo partly drawn) [19-72, 3β-O-(3′,3′-Dimethylsuccinyl)-17β-(2-methyl-1,3-thiazole-4-amido)-21-oxolup-18-ene], the concentration for half-maximal inhibition (IC50) under setting [1] is less than 199 nM.

Take `CC(C)C1=C2[C@H]3CC[C@@H]4[C@@]5(C)CC[C@H](OC(=O)CC(C)(C)C(=O)O)C(C)(C)[C@@H]5CC[C@@]4(C)[C@]3(C)CC[C@@]2(NC(=O)NC2CN(C(=O)OC(C)(C)C)C2)CC1=O` [17-33, 3β-O-(3′,3′-Dimethylsuccinyl)-17β-[N′-(1-tert-butyloxycarbonyl-azetidin-3-yl)-ureido]-21-oxolup-18-ene]: the IC50 under setting [1] is less than 199 nM.

In the case of `Cc1cc(C(=O)N[C@@]23CC[C@]4(C)[C@H](CC[C@@H]5[C@@]6(C)CC[C@H](OC(=O)CC(C)(C)C(=O)O)C(C)(C)[C@@H]6CC[C@]54C)C2=C(C(C)C)C(=O)C3)cc(C)n1` [19-64, 3β-O-(3′,3′-Dimethylsuccinyl)-17β-(2,6-dimethylpyridin-4-yl)amido-21-oxolup-18-ene], the IC50 under setting [1] was less than 199 nM.

`CC(C)C1=C2C3CCC4[C@@]5(C)CC[C@H](OC(=O)CC(C)(C)C(=O)O)C(C)(C)C5CC[C@@]4(C)[C@]3(C)CC[C@@]2(NC(=O)OCCN2CCCC2=O)CC1=O` (stereo partly drawn) [20-24, 3β-O-(3′,3′-Dimethylsuccinyl)-17β-(2-(2-oxo-pyrrolidin)-1-ethoxycarbonylamino)-21-oxolup-18-ene]: under setting [1], the IC50 is less than 199 nM.
